The test has as its system SRE.L-firefly luciferase reporter (Rho/MKL1 pathway) in PC-3 prostate cancer cells. Briefly: SRE.L-luciferase reporter assay. The format is cell-based. To be noted: 19 h, PC-3 cells transfected with Gα12Q231L, SRE.L and pRL-TK reporters; compound 19 hrs. A digest of the protocol:
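PC-3 cells co-transfected with Gα12Q231L (2 ng), SRE.L-firefly (50 ng) and pRL-TK Renilla (7 ng) reporters, then treated with 0–100 μM compound for 19 h at 37° C. in 0.5% FBS DMEM. Dual-luciferase luminescence expressed as % inhibition vs DMSO; WST-1 viability at 450 nm; n=3 in triplicate.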
For orientation: Reporter assays use an easily measured gene product as a stand-in for the process of interest.
As to `O=C(Nc1ccc(Cl)cc1)C1CCCN(C(=O)c2cccc3[nH]ncc23)C1` (stereo not shown) [Example E-085, N-(4-chlorophenyl)-1-(1H-indazole-4-carbonyl)piperidine-3-carboxamide], the IC50 – broadly, the midpoint of a concentration-inhibition curve – amounted to 0.31 µM.
The compound `O=C(Nc1ccc(Cl)cc1)C1CCCN(C(=O)c2cnc(Br)s2)C1` (stereo not shown) [Example E-036, 1-(2-bromothiazole-5-carbonyl)-N-(4-chlorophenyl) piperidine-3-carboxamide] yielded an IC50 of over 100 µM.
`O=C(Nc1ccc(Cl)cc1)C1CN(C(=O)c2cccc(-c3ccco3)c2)CCN1C(=O)Nc1ccccc1` (stereo not shown) [Example E-009, N2-(4-chlorophenyl)-4-(3-(furan-2-yl)benzoyl)-N1-phenylpiperazine-1,2-dicarboxamide] gave an IC50 of 18 µM.
Take `O=C(Nc1ccc(Cl)cc1)C1CCCN(Cc2ccc(-n3cccc3)cc2)C1` (stereo not shown) [Example E-110, 1-(4-(1H-pyrrol-1-yl)benzyl)-N-(4-chlorophenyl)piperidine-3-carboxamide]: the half-maximal inhibitory concentration (IC50) was 2.9 µM.
In turn, `O=C(NC1CCCN(C(=O)c2cccc(-c3ccco3)c2)C1)c1ccc(Cl)cc1` (stereo not shown) [Example E-065, 4-chloro-N-(1-(3-(furan-2-yl)benzoyl)piperidin-3-yl)benzamide] registered a half-maximal inhibitory concentration (IC50) of 13 µM.
Take `O=C(Nc1ccc(Cl)cc1)C1CN(C(=O)c2cccc(-c3ccco3)c2)CCN1Cc1ccccc1` (stereo not shown) [Example E-017, 1-benzyl-N-(4-chlorophenyl)-4-(3-(furan-2-yl)benzoyl)piperazine-2-carboxamide]: the IC50 turned out to be 16 µM.
As to `COc1ccc2[nH]c(C(=O)N3CCCC(C(=O)Nc4ccc(Cl)cc4)C3)cc2c1` (stereo not shown) [Example E-081, N-(4-chlorophenyl)-1-(5-methoxy-1H-indole-2-carbonyl)piperidine-3-carboxamide], the IC50 was 0.26 µM.
Compound `N#Cc1ccc(NC(=O)C2CCCN(C(=O)c3cccc(-c4ccco4)c3)C2)cc1` (stereo not shown) [Example E-104, N-(4-cyanophenyl)-1-(3-(furan-2-yl)benzoyl)piperidine-3-carboxamide] returned an IC50 of 2.9 µM.
As for `O=C(c1cccc(-c2ccco2)c1)N1CCCC(NS(=O)(=O)c2ccc(Cl)cc2)C1` (stereo not shown) [Example E-062, 4-chloro-N-(1-(3-(furan-2-yl)benzoyl)piperidin-3-yl)benzenesulfonamide], the figure is 21 µM.
Turning to `O=C(Nc1ccc(Cl)cc1)C1CN(C(=O)c2cc(F)cc(-c3ccncc3)c2)CC(F)(F)C1` (stereo not shown) [Example E-041, N-(4-chlorophenyl)-5,5-difluoro-1-(3-fluoro-5-(pyridin-4-yl)benzoyl)piperidine-3-carboxamide], the half-maximal inhibitory concentration (IC50) turned out to be 0.83 µM.
Then `O=C(Nc1ccc(F)cc1)C1CCCN(C(=O)c2cccc(-c3ccco3)c2)C1` (stereo not shown) [Example E-105, N-(4-fluorophenyl)-1-(3-(furan-2-yl)benzoyl)piperidine-3-carboxamide], with 13 µM; and `CN1CCN(C(=O)c2cccc(-c3ccco3)c2)CC1C(=O)Nc1ccc(Cl)cc1` (stereo not shown) [Example E-018, N-(4-chlorophenyl)-4-(3-(furan-2-yl)benzoyl)-1-methylpiperazine-2-carboxamide], with 8.7 µM; and `O=C(Nc1ccc(Cl)cc1)C1CCCN(C(=O)c2cccc(-c3cc[nH]n3)c2)C1` (stereo not shown) [Example E-032, 1-(3-(1H-pyrazol-3-yl)benzoyl)-N-(4-chlorophenyl)piperidine-3-carboxamide], with 3.2 µM.
With `O=C(Nc1ccc(Cl)cc1)C1CN(C(=O)c2ccc3cc[nH]c3c2)CC(F)(F)C1` (stereo not shown) [Example E-076, N-(4-chlorophenyl)-5,5-difluoro-1-(1H-indole-6-carbonyl)piperidine-3-carboxamide], the half-maximal inhibitory concentration (IC50) was found to be 1.6 µM.
Compound `O=C(Nc1ccc(Cl)cc1)C1CN(C(=O)c2cccc(-c3ccco3)c2)CCN1C(=O)Oc1ccccc1` (stereo not shown) [Example E-015, phenyl 2((4-chlorophenyl)carbamoyl)-4-(3-(furan-2-yl)benzoyl)piperazine-1-carboxylate] came in with an IC50 of 26 µM.
`O=C(Nc1ccc(Cl)cc1)C1CN(C(=O)c2cccc(-c3ccncc3)c2)CC(F)(F)C1` (stereo not shown) [Example E-068, N-(4-chlorophenyl)-5,5-difluoro-1-(3-(pyridin-4-yl)benzoyl) piperidine-3-carboxamide] had an IC50 of 0.78 µM.

These data come from US10662183B2, “Inhibitors of myocardin-related transcription factor and serum response factor (MRTF/SRF)-mediated gene transcription and methods for use of the same” (THE REGENTS OF THE UNIVERSITY OF MICHIGAN, priority 2014, dated 2020).
